Earlier results in US5889008A, “Substituted 1-indolylpropyl-4-phenethylpiperazadine derivatives” (Merck Sharp & Dohme, Ltd., priority 1995, dated 1999).

Key:
[1] = system: human 5-HT1Dα and 5-HT1Dβ receptor subtypes; conditions: cf. WO-A-91/17174, Table 1
humans = conditions: therapeutic doses

Compound: CNS(=O)(=O)Cc1ccc2[nH]cc(CCN(C)C)c2c1 [sumatriptan]
- discrimination between the human 5-HT1Dα and 5-HT1Dβ receptor subtypes [1]: barely discriminates between the human 5-HT1Dα and 5-HT1Dβ receptor subtypes
- adverse cardiovascular events (humans): certain adverse cardiovascular events
